The source of these data is patent US4883869A, “Novel beta-lactams containing amino acid substituents” (The Upjohn Company, priority 1988, dated 1989).

Holding throughout (experiment): Minimum inhibitory concentration by agar dilution, Mueller Hinton Agar (NCCLS M7-A)
What all share (type): cell-based
(In agar dilution the substance is mixed into plates at graded concentrations.)

In test [1] the test system is Serratia marcescens. The following applies: Culture No. 6888, MHA, 35° C., 20 hours. The method, then:
(§1) The compounds of this invention and their respective pharmaceutically acceptable salts have antibiotic activity against a variety of gram-negative bacteria including Escherichia coli, Klebsiella pneumoniae, and Pseudomonas aeruginosa. The compounds are useful for treating bacterial infections in animals, including and most preferably humans. Compounds of the invention are tested for in vitro antimicrobial activity using standard testing procedures such as the determination of minimum inhibitory concentration (MIC) by methods described in "Methods for Dilution Antimicrobial Susceptibility Tests for Bacteria That Grow Aerobically" (M7-A) Published December 1985 by the National Committee for Clinical Laboratory Standards, 771 East Lancaster Avenue, Villanova, PA 19084. Briefly, MIC values are determined in unsupplemented Mueller Hinton Agar (MHA). The compounds tested are diluted serially into molten MHA at 47° C. The agar is poured into petri dishes and allowed to harden. The various bacteria used for testing are grown overnight on MHA at 35° C. and transferred to Tryptiease Soy Broth (TSB) until a turbidity of 0.5 McFarland standard is obtained. The bacteria are diluted one to twenty in TSB and inoculated on the plates (1 μl using a Steers replicator).

Test [2] concerns Proteus vulgaris. The following applies: Culture No. 9679, MHA, 35° C., 20 hours. The method, then: as §1
The test system of test [3] is Streptococcus pneumoniae. The following applies: Culture No. 41, MHA, 35° C., 20 hours. The protocol: as §1
Test [4] deals with Staphylococcus aureus. The following applies: MHA, 35° C., 20 hours; for MIC: Staphylococcus aureus, Culture No. 6675. The method, then:
as §1

The test system of test [5] is Streptococcus faecalis. The following applies: Enterococcus faecalis; Culture No. 694; MHA, 35° C., 20 hours. The protocol:
as §1

In test [6] the test system is Escherichia coli. The following applies: 20 h, 35° C. The protocol:
as §1

Test [7] relates to Klebsiella pneumoniae. To be noted: Culture No. 58, MHA, 35° C., 20 hours. The protocol:
as §1

Test [8] relates to Klebsiella oxytoca. To be noted: 20 h, 35° C. The protocol: as §1
Test [9] deals with Enterobacter cloacae. To be noted: 20 h, 35° C. The method, then: as §1
Test [10] has as its system Citrobacter freundii. The following applies: Culture No. 3507, MHA, 35° C., 20 hours. The protocol: as §1
Test [11] has as its system Pseudomonas aeruginosa. To be noted: 20 h, 35° C. The protocol: as §1
Test [12] concerns Streptococcus pyogenes. The following applies: Culture No. 152, MHA, 35° C., 20 hours. The method, then: as §1

Counter-ions that a name gives are not always drawn.

In general, MIC refers to the least concentration at which growth counts as inhibited. For `Nc1nc(C(=NOCC(=O)O)C(=O)NC2C(=O)N(S(=O)(=O)O)C2COC(=O)CNC=O)cs1` (mixture of isomers) [Compound 7, Cis-(±)-[2'-(2"-amino-4"-thiazolyl)-(Z)-2'-(1"-carboxymethoxy)imino]acetamido-4-[N-formylglycinoyloxymethyl]-2-oxo-1-azetidinesulfonic acid monopotassium salt], the MIC in test [1] was 0.25 µg/mL; in [2], under 0.03 µg/mL; in test [3], 64 µg/mL; in test [4], over 128 µg/mL; in test [5], over 128 µg/mL; in [6] (Culture No. 311, MHA), 0.06 µg/mL. For the same compound, the MIC is 0.125 µg/mL in test [6] (Culture No. 9379, MHA); 0.25 µg/mL in test [6] (Culture No. 9380, MHA); 0.125 µg/mL in test [6] (Culture No. 9451, MHA); 0.06 µg/mL in test [7]; 0.5 µg/mL in test [8] (Culture No. 9383, MHA); 0.06 µg/mL in test [8] (Culture No. 9384, MHA). Also, the MIC in test [9] (Culture No. 9381, MHA) worked out at 64 µg/mL; in test [9] (Culture No. 9382, MHA) it was 0.125 µg/mL; in test [10], 0.125 µg/mL; in test [11] (Culture No. 6432, MHA), 8 µg/mL; in test [11] (Culture No. 6676, MHA), 4 µg/mL; in test [11] (Culture No. 9191, MHA) it was 4 µg/mL. Also, the MIC in test [11] (Culture No. 30133, MHA) was 8 µg/mL; in test [12] it was 16 µg/mL. The “Minimum Inhibitory Concentration” value in test [4] (Culture No. 3665) and in [4] (Culture No. 6685) was over 128 MCG per ML throughout.

As for `NCC(=O)OCC1C(NC(=O)C(=NOCC(=O)O)c2csc(N)n2)C(=O)N1S(=O)(=O)O` (mixture of isomers) [Compound 11, Cis-(±)-3-[[2'-(2"-amino-4"-thiazolyl)-(Z)-2'-(1'"-carboxymethoxy)imino]acetamido]-4-[N-glycinoyloxymethyl]-2-oxo-1-azetidinesulfonic acid], the MIC in [1] was 0.5 µg/mL; in [2], 0.125 µg/mL; in [3], 128 µg/mL; in test [4] it was over 128 µg/mL; in [5], over 128 µg/mL; in test [6] (Culture No. 311, MHA) it was 0.125 µg/mL. Besides, the MIC was determined as 0.25 µg/mL in test [6] (Culture No. 9379, MHA); 0.25 µg/mL in [6] (Culture No. 9380, MHA); 0.125 µg/mL in test [7]; 1 µg/mL in test [8] (Culture No. 9383, MHA); 0.125 µg/mL in [8] (Culture No. 9384, MHA); 64 µg/mL in test [9] (Culture No. 9381, MHA). Besides, the MIC in test [9] (Culture No. 9382, MHA) was found to be 0.25 µg/mL; in test [10], 0.25 µg/mL; in [11] (Culture No. 6432, MHA) it was 64 µg/mL; in test [11] (Culture No. 6676, MHA) it was 8 µg/mL; in test [11] (Culture No. 9191, MHA), 8 µg/mL; in test [11] (Culture No. 30133, MHA) it was 16 µg/mL. This compound also had an MIC in [12] of 16 µg/mL. The “Minimum Inhibitory Concentration” value in [4] (Culture No. 3665) and in test [4] (Culture No. 6685) was over 128 MCG per ML throughout.
